Measurements from the NIST ThermoML archive (doi:10.1016/j.fluid.2010.03.004).

Assay: xn = mol fraction of the nth substance listed
Conditions: Liquid, Vibrating tube method

CC(C)O [propan-2-ol] + O=C=O
Conditions	mass density [kg/m3]
313.22 K, x2 = 0.1267	783.1
313.22 K, x2 = 0.2066	789.6
313.22 K, x2 = 0.3029	799.3
313.22 K, x2 = 0.3845	803.6
313.22 K, x2 = 0.4501	806.7
313.22 K, x2 = 0.554	805.4
313.22 K, x2 = 0.6472	794.9
313.22 K, x2 = 0.7539	783.1
313.22 K, x2 = 0.902	703.7
333.03 K, x2 = 0.137	761
333.03 K, x2 = 0.2077	762.7
333.03 K, x2 = 0.3001	765
333.03 K, x2 = 0.4023	767.5
333.03 K, x2 = 0.4645	768.5
333.03 K, x2 = 0.6377	770.7
333.03 K, x2 = 0.7582	771.4
333.03 K, x2 = 0.8297	771.4
348.25 K, x2 = 0.0736	741.2
348.25 K, x2 = 0.1432	743.9
348.25 K, x2 = 0.2469	746.5
348.25 K, x2 = 0.3234	748.6
348.25 K, x2 = 0.4042	750.9
348.25 K, x2 = 0.5132	752.9
348.25 K, x2 = 0.5658	753.6
348.25 K, x2 = 0.7177	745.3
348.25 K, x2 = 0.755	646.5
348.25 K, x2 = 0.8241	568
362.92 K, x2 = 0.1016	641.7
362.92 K, x2 = 0.1668	690.6
362.92 K, x2 = 0.2312	726.4
362.92 K, x2 = 0.3079	728.3
362.92 K, x2 = 0.3719	728.7
362.92 K, x2 = 0.4681	726.5
362.92 K, x2 = 0.5653	704.5
362.92 K, x2 = 0.6285	671.6
362.92 K, x2 = 0.7165	590.4

CCCO [propan-1-ol] + O=C=O
Conditions	mass density [kg/m3]
313.24 K, x2 = 0.202	807
313.24 K, x2 = 0.2572	812.6
313.24 K, x2 = 0.3141	817.6
313.24 K, x2 = 0.4054	823.3
313.24 K, x2 = 0.4405	824.4
313.24 K, x2 = 0.5256	826.3
313.24 K, x2 = 0.5773	825.7
313.24 K, x2 = 0.6774	822
313.24 K, x2 = 0.7843	786.8
363.17 K, x2 = 0.1483	752
363.17 K, x2 = 0.2294	754.9
363.17 K, x2 = 0.3137	754.8
363.17 K, x2 = 0.4007	753.6
363.17 K, x2 = 0.4863	749.7
363.17 K, x2 = 0.6808	680.6
363.17 K, x2 = 0.7308	638.5
